Data set [1] relates to bicistronic HCV replicon (replicon RNA, GenBank Accession No. AJ242654). The data set is described as follows: HCV Replicon Assay. Format: cell-based. The note with it: Hepatitis C virus, 72 h, read-out: Replicon IC50.

From patent US8735414B2 (priority 2009, dated 2014) come the findings set out here.

A value given as a limit tells only on which side of the number the result lay.

Regarding `CC(C)n1c(-c2ccc(S(=O)(=O)N[C@H](C)C(F)(F)F)cn2)c(C#N)c2ccc(OC(F)F)cc21` [compound 194, 6-[3-cyano-6-(difluoromethoxy)-1-(propan-2-yl)-1H-indol-2-yl]-N-[(2R)-1,1,1-trifluoropropan-2-yl]pyridine-3-sulfonamide], the melting point was in the range of 166 to 168 °C. Also, the concentration for half-maximal inhibition (IC50) in data set [1] is less than 0.5 µM.

In turn, `Cc1ccc2c(c1)c(C#N)c(-c1ccc(S(=O)(=O)N[C@@H](C)C(F)(F)F)cn1)n2-c1ncccc1F` [compound 844, 6-[3-cyano-1-(3-fluoropyridin-2-yl)-5-methyl-1H-indol-2-yl]-N-[(2S)-1,1,1-trifluoropropan-2-yl]pyridine-3-sulfonamide] had a melting point of 216 to 220 °C. The IC50 in data set [1] is less than 0.5 µM.

`C[C@@H](NS(=O)(=O)c1ccc(-c2c(C#N)c3cc(F)c(C4CC4)cc3n2C2CCC2)nc1)C(F)(F)F` [compound 631, 6-(3-cyano-1-cyclobutyl-6-cyclopropyl-5-fluoro-1H-indol-2-yl)-N-[(2R)-1,1,1-trifluoropropan-2-yl]pyridine-3-sulfonamide]: the melting point fell in the range of 190 to 194 °C. Besides, the half-maximal inhibitory concentration (IC50) in data set [1] is less than 0.5 µM.

As to `C[C@@H](C1CC1)n1c(-c2ccc(NS(=O)(=O)C(C)(C)C)nc2)c(C(N)=O)c2cc(F)c(OC(F)F)cc21` [compound 1081, 2-{6-[(tert-butylsulfonyl)amino]pyridin-3-yl}-1-[(1S)-1-cyclopropylethyl]-6-(difluoromethoxy)-5-fluoro-1H-indole-3-carboxamide], the melting point was 239 to 241 °C. Besides, the IC50 in data set [1] was less than 0.5 µM.

On to `Cc1cc2c(cc1F)c(C(N)=O)c(-c1ccc(S(=O)(=O)N[C@@H](C)C(F)(F)F)cn1)n2C1CCCCC1` [compound 706, 1-cyclohexyl-5-fluoro-6-methyl-2-(5-{[(2S)-1,1,1-trifluoropropan-2-yl]sulfamoyl}pyridin-2-yl)-1H-indole-3-carboxamide], for which the melting point fell in the range of 273 to 279 °C. Besides, in data set [1], the IC50 was less than 0.5 µM.

In turn, `C[C@@H](NS(=O)(=O)c1ccc(-c2c(C#N)c3ccc(F)cc3n2CC2CC2)nc1)C(F)(F)F` [compound 216, 6-[3-cyano-1-(cyclopropylmethyl)-6-fluoro-1H-indol-2-yl]-N-[(2R)-1,1,1-trifluoropropan-2-yl]pyridine-3-sulfonamide] yielded a melting point of 173 to 175 °C. In addition, the half-maximal inhibitory concentration (IC50) in data set [1] lay within 0.5 to 2 µM.

In turn, `Cc1cc2c(C#N)c(-c3ccc(S(=O)(=O)N[C@@H](C)C(F)(F)F)cn3)n(C3CCCC3)c2cc1Cl` [compound 522, 6-(6-chloro-3-cyano-1-cyclopentyl-5-methyl-1H-indol-2-yl)-N-[(2S)-1,1,1-trifluoropropan-2-yl]pyridine-3-sulfonamide] showed a melting point of 186 to 187 °C. Also, the IC50 in data set [1] is less than 0.5 µM.

Regarding `CC(C)Oc1ccc2c(C#N)c(-c3ccc(NS(C)(=O)=O)nn3)n(C3CCC3)c2c1` [compound 275, N-{6-[3-cyano-1-cyclobutyl-6-(propan-2-yloxy)-1H-indol-2-yl]pyridazin-3-yl}methanesulfonamide], the melting point lay within 225 to 227 °C. The IC50 in data set [1] was in the range of 2 to 5 µM.

For the molecule `CCc1cc2c(cc1F)c(C#N)c(-c1ccc(S(=O)(=O)N[C@@H](C)C(F)(F)F)cn1)n2-c1cccc(Cl)c1` [compound 1018, 6-[1-(3-chlorophenyl)-3-cyano-6-ethyl-5-fluoro-1H-indol-2-yl]-N-[(2S)-1,1,1-trifluoropropan-2-yl]pyridine-3-sulfonamide], the melting point lay within 195 to 198 °C. The half-maximal inhibitory concentration (IC50) in data set [1] was less than 0.5 µM.

`Cc1cc(NS(=O)(=O)C(C)(C)C)ncc1-c1c(C(N)=O)c2cc(F)c(OC(F)F)cc2n1[C@H](C)C1CC1` [compound 1087, 2-{6-[(tert-butylsulfonyl)amino]-4-methylpyridin-3-yl}-1-[(1R)-1-cyclopropylethyl]-6-(difluoromethoxy)-5-fluoro-1H-indole-3-carboxamide] came in with a melting point of 250 to 254 °C. Further, the half-maximal inhibitory concentration (IC50) in data set [1] was less than 0.5 µM.

Molecule `Cc1ccc2c(c1F)c(C#N)c(-c1ccc(S(=O)(=O)N[C@@H](C)C(F)(F)F)cn1)n2C1CCCC1` [compound 615, 6-(3-cyano-1-cyclopentyl-4-fluoro-5-methyl-1H-indol-2-yl)-N-[(2S)-1,1,1-trifluoropropan-2-yl]pyridine-3-sulfonamide] yielded a melting point of 186 to 197 °C. In addition, the IC50 in data set [1] is less than 0.5 µM.

`Cc1c(F)cc2c(C#N)c(-c3ccc(S(=O)(=O)N[C@H](C)C(F)(F)F)cn3)n(C3CCC3)c2c1F` [compound 666, 6-(3-cyano-1-cyclobutyl-5,7-difluoro-6-methyl-1H-indol-2-yl)-N-[(2R)-1,1,1-trifluoropropan-2-yl]pyridine-3-sulfonamide] yielded a melting point of 185 to 190 °C. Also, in data set [1], the IC50 is less than 0.5 µM.

Turning to `N#Cc1c(-c2ccc(S(=O)(=O)NC(CF)CF)cn2)n(-c2ccccn2)c2cc(C3CC3)ccc12` [compound 501, 6-[3-cyano-6-cyclopropyl-1-(pyridin-2-yl)-1H-indol-2-yl]-N-(1,3-difluoropropan-2-yl)pyridine-3-sulfonamide], the melting point was in the range of 210 to 213 °C. The concentration for half-maximal inhibition (IC50) in data set [1] was less than 0.5 µM.

As to `C[C@H](NS(=O)(=O)c1ccc(-c2c(C#N)c3ccc(OC(F)(F)F)cc3n2C2CCCCC2)nc1)C1CC1` [compound 305, 6-[3-cyano-1-cyclohexyl-6-(trifluoromethoxy)-1H-indol-2-yl]-N-[(1S)-1-cyclopropylethyl]pyridine-3-sulfonamide], the melting point fell in the range of 195 to 197 °C. Also, the concentration for half-maximal inhibition (IC50) in data set [1] was less than 0.5 µM.

As for `CCc1cc2c(cc1F)c(C#N)c(-c1ccc(S(=O)(=O)NC3(C)CC3)cn1)n2-c1ncccn1` [compound 860, 6-[3-cyano-6-ethyl-5-fluoro-1-(pyrimidin-2-yl)-1H-indol-2-yl]-N-(1-methylcyclopropyl)pyridine-3-sulfonamide], the melting point is 169 to 179 °C. Also, in data set [1], the 50% inhibitory concentration (IC50) is less than 0.5 µM.

`CC(C)(NS(=O)(=O)c1ccc(-c2c(C#N)c3ccc(OC(F)F)cc3n2-c2ccccn2)nc1)C(F)(F)F` [compound 583, 6-[3-cyano-6-(difluoromethoxy)-1-(pyridin-2-yl)-1H-indol-2-yl]-N-(1,1,1-trifluoro-2-methylpropan-2-yl)pyridine-3-sulfonamide]: the melting point fell in the range of 170 to 173 °C. Besides, the half-maximal inhibitory concentration (IC50) in data set [1] is less than 0.5 µM.

Consider `N#Cc1c(-c2ncc(S(=O)(=O)NC(CF)CF)cn2)n(C2CCCCC2)c2cc(C3CC3)ccc12` [compound 193, 2-(3-cyano-1-cyclohexyl-6-cyclopropyl-1H-indol-2-yl)-N-(1,3-difluoropropan-2-yl)pyrimidine-5-sulfonamide], for which the melting point was > 200 °C (dec.). For the same molecule, in data set [1], the IC50 was less than 0.5 µM.

In the case of `Cc1c(F)cc2c(C#N)c(-c3ccc(S(=O)(=O)NC4(C(F)(F)F)CC4)cn3)n(C3CCC3)c2c1F` [compound 667, 6-(3-cyano-1-cyclobutyl-5,7-difluoro-6-methyl-1H-indol-2-yl)-N-[1-(trifluoromethyl)cyclopropyl]pyridine-3-sulfonamide], the melting point lay in the range of 235 to 241 °C. The concentration for half-maximal inhibition (IC50) in data set [1] is less than 0.5 µM.

The molecule `Cc1ccc2c(c1)c(C#N)c(-c1ncc(S(=O)(=O)NC(CF)CF)cn1)n2C(C)C` [compound 567, 2-[3-cyano-5-methyl-1-(propan-2-yl)-1H-indol-2-yl]-N-(1,3-difluoropropan-2-yl)pyrimidine-5-sulfonamide] came in with a melting point of 160 to 163 °C. Also, the IC50 in data set [1] was less than 0.5 µM.

The molecule `Cc1cc2c(cc1F)c(C#N)c(-c1ccc(S(=O)(=O)NC(C)(C)C(F)(F)F)cn1)n2C1CCC1` [compound 539, 6-(3-cyano-1-cyclobutyl-5-fluoro-6-methyl-1H-indol-2-yl)-N-(1,1,1-trifluoro-2-methylpropan-2-yl)pyridine-3-sulfonamide] displayed a melting point of 238 to 243 °C. Besides, in data set [1], the IC50 is less than 0.5 µM.

For `C[C@H](NS(=O)(=O)c1ccc(-c2c(C#N)c3ccc(C4CC4)cc3n2-c2ccccn2)nc1)C(F)(F)F` [compound 502, 6-[3-cyano-6-cyclopropyl-1-(pyridin-2-yl)-1H-indol-2-yl]-N-[(2S)-1,1,1-trifluoropropan-2-yl]pyridine-3-sulfonamide], the melting point is 185 to 189 °C. The IC50 in data set [1] was less than 0.5 µM.

Molecule `Cc1ccc2c(C#N)c(-c3ccc(S(=O)(=O)N[C@@H](C)C(F)(F)F)cn3)n(C3CCCC3)c2c1` [compound 352, 6-(3-cyano-1-cyclopentyl-6-methyl-1H-indol-2-yl)-N-[(2S)-1,1,1-trifluoropropan-2-yl]pyridine-3-sulfonamide] registered a melting point of 176 to 180 °C. Moreover, in data set [1], the IC50 is less than 0.5 µM.

`N#Cc1c(-c2ccc(S(=O)(=O)NC(CF)CF)cn2)n(-c2ccccn2)c2cc(Cl)ccc12` [compound 438, 6-[6-chloro-3-cyano-1-(pyridin-2-yl)-1H-indol-2-yl]-N-(1,3-difluoropropan-2-yl)pyridine-3-sulfonamide]: the melting point fell in the range of 219 to 221 °C. Besides, the half-maximal inhibitory concentration (IC50) in data set [1] is less than 0.5 µM.

Take `Cc1ccc2c(c1)c(C#N)c(-c1ccc(S(=O)(=O)N[C@H](C)C(F)(F)F)cn1)n2C(C)C` [compound 485, 6-[3-cyano-5-methyl-1-(propan-2-yl)-1H-indol-2-yl]-N-[(2R)-1,1,1-trifluoropropan-2-yl]pyridine-3-sulfonamide]: the melting point was 167 to 173 °C. Also, the IC50 in data set [1] was less than 0.5 µM.

`N#Cc1c(-c2ncc(S(=O)(=O)NC(CF)CF)cn2)n(C2CCC2)c2cc(F)ccc12` [compound 163, 2-(3-cyano-1-cyclobutyl-6-fluoro-1H-indol-2-yl)-N-(1,3-difluoropropan-2-yl)pyrimidine-5-sulfonamide]: the melting point was in the range of 193 to 195 °C. Besides, the half-maximal inhibitory concentration (IC50) in data set [1] was 0.5 to 2 µM.

As to `Cc1cc(S(=O)(=O)N[C@@H](C)C(F)(F)F)cnc1-c1c(C#N)c2cc(F)c(OC(F)F)cc2n1C1CCC1` [compound 827, 6-[3-cyano-1-cyclobutyl-6-(difluoromethoxy)-5-fluoro-1H-indol-2-yl]-5-methyl-N-[(2S)-1,1,1-trifluoropropan-2-yl]pyridine-3-sulfonamide], the melting point is 150 to 155 °C. Further, the IC50 in data set [1] was less than 0.5 µM.
